In ChEMBL document CHEMBL1155290, “Synthesis and anti-HIV activity evaluation of 2-(4-(naphthalen-2-yl)-1,2,3-thiadiazol-5-ylthio)-N-acetamides as novel non-nucleoside HIV-1 reverse transcriptase inhibitors” (Eur J Med Chem, 2009):

How the values were obtained:
[1] = Cytotoxicity against human MT4 cells as reduction in cell viability after 5 days by MTT assay; assay type: cell-based
[2] = Selective index, ratio of CC50 for human MT4 cells to EC50 for HIV1 3B

Compound: O=C1Nc2ccc(Cl)cc2[C@@](C#CC2CC2)(C(F)(F)F)O1 [EFAVIRENZ]
- CC50 at 120 h [1]: > 6.34 µM
- Ratio CC50/EC50 [2]: >1434

Compound: Cc1ccnc2c1NC(=O)c1cccnc1N2C1CC1 [NEVIRAPINE]
- CC50 at 120 h [1]: > 15 µM

Compound: CC(C)Nc1cccnc1N1CCN(C(=O)c2cc3cc(NS(C)(=O)=O)ccc3[nH]2)CC1 [DELAVIRDINE]
- CC50 at 120 h [1]: > 3.83 µM
- Ratio CC50/EC50 [2]: >12

Compound: Cc1cn([C@H]2C[C@H](N=[N+]=[N-])[C@@H](CO)O2)c(=O)[nH]c1=O [ZIDOVUDINE]
- CC50 at 120 h [1]: > 93.5 µM
- Ratio CC50/EC50 [2]: >6192
